# Experiments:
# [1] = molecular target: T1, serotonin (5-HT) reuptake (Rattus norvegicus, UniProt P31652); test: Inhibition of serotonin (5HT) reuptake in synaptosomes from rat brain; format: biochemical; conditions: test concentration of 10 μM
# T1 construct: synaptosomes are freshly isolated from areas of the rat brain; from tissue; host or cells: rat brain synaptosomes (P2 fraction)
# Procedure, shortened: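 Freshly isolated rat brain synaptosomes (P2 fraction) used for 5-HT reuptake. Test compound at 10 μM, activity given as % inhibition.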
# [2] = molecular target: T2, human bradykinin 1 receptor (B1R) (Homo sapiens, UniProt P46663); test: Functional investigation on the human bradykinin 1 receptor (B1R), Ca2+ FLIPR assay in CHO K1 hB1R cells; format: cell-based; conditions: B1R antagonism human; test substance 10 μM; Ca2+ FLIPR, CHO K1 hB1R cells
# T2 construct: expressed in transfected cells; host or cells: CHO K1 cells
# T2 sequence (P46663 1-353): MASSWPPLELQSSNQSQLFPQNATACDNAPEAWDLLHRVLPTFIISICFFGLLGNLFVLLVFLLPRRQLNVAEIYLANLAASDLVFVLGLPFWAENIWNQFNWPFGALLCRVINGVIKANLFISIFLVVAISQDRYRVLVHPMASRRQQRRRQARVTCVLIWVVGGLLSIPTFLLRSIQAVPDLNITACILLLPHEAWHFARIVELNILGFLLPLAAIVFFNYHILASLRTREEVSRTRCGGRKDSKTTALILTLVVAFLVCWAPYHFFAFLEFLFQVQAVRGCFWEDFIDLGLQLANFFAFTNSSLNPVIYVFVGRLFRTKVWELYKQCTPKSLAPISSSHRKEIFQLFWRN
# Procedure, shortened: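 Cells were dye-loaded with Fluo-4 plus probenecid, then test substances added and Ca2+ influx compared with agonist control for % activation. After 10-20 min, EC80 agonist (Lys-Des-Arg9-bradykinin human; Des-Arg9-bradykinin rat) was applied; suppression gave % inhibition and IC50 values.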
# T1 sequence (P31652 whole entry): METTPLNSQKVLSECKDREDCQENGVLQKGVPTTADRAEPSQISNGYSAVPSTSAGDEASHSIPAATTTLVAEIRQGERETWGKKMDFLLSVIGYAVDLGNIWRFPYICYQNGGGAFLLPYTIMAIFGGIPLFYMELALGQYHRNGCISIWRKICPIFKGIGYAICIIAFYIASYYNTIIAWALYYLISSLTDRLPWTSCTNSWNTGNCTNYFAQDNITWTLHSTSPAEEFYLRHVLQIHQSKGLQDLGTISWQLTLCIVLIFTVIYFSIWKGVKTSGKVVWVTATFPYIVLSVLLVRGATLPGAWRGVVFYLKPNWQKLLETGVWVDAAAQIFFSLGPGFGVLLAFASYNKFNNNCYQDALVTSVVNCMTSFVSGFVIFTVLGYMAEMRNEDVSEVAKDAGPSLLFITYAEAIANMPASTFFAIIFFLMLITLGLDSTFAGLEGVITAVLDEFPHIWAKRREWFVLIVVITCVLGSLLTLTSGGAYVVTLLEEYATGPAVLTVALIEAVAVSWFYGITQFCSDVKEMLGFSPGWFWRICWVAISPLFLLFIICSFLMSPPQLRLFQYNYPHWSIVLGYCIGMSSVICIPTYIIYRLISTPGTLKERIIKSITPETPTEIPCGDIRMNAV
structure (smiles),measurement,setting,value
COc1cc(C)c(S(=O)(=O)N2CCN(CCOCC(=O)NCCC3CCC(C(c4ccc(F)cc4)N(C)C)CC3)CC2)c(C)c1C (stereo not drawn) [Example 387],"5-HT (inhibition of reuptake of serotonin, % inhibition)",[1],95%
same,B1R Ant. h [10 μM] % Inhibition,[2],75%
COc1cc(C)c(S(=O)(=O)N(CCOCC(=O)NCC2CCC(C(c3cccc(F)c3)N(C)C)CC2)Cc2ccccc2)c(C)c1 (stereo not drawn) [Example 388],"5-HT (inhibition of reuptake of serotonin, % inhibition)",[1],91%
same,B1R Ant. h [10 μM] % Inhibition,[2],74%
COc1ccc(S(=O)(=O)N2Cc3ccccc3CC2COCC(=O)NCCC2CCC(C(c3ccc(F)cc3)N(C)C)CC2)cc1 (stereo not drawn) [Example 389],"5-HT (inhibition of reuptake of serotonin, % inhibition)",[1],93%
same,B1R Ant. h [10 μM] % Inhibition,[2],36%
CN(C)C(c1ccc(F)cc1)C1CCC(CNC(=O)COCCN(C)S(=O)(=O)c2cccc(C(F)(F)F)c2)CC1 (stereo not drawn) [Example 390],"5-HT (inhibition of reuptake of serotonin, % inhibition)",[1],90%
same,B1R Ant. h [10 μM] % Inhibition,[2],55%
CN(C)C(c1ccc(F)cc1)C1CCC(CNC(=O)COC2CCN(S(=O)(=O)c3ccc(Cl)cc3Cl)C2)CC1 (stereo not drawn) [Example 391],"5-HT (inhibition of reuptake of serotonin, % inhibition)",[1],85%
same,B1R Ant. h [10 μM] % Inhibition,[2],71%
COc1cc(C)c(S(=O)(=O)N(C)CCOCC(=O)NCCC2CCC(C(c3ccc(F)cc3)N(C)C)CC2)c(C)c1 (stereo not drawn) [Example 392],"5-HT (inhibition of reuptake of serotonin, % inhibition)",[1],89%
same,B1R Ant. h [10 μM] % Inhibition,[2],104%
Cc1cc(C)c(S(=O)(=O)N2CCC(OCC(=O)NCC3CCC(C(c4ccc(Cl)cc4)N(C)C)CC3)C2)c(C)c1 (stereo not drawn) [Example 393],"5-HT (inhibition of reuptake of serotonin, % inhibition)",[1],70%
same,B1R Ant. h [10 μM] % Inhibition,[2],97%
CN(C)C(c1ccc(Cl)cc1)C1CCC(CNC(=O)COC2CCN(S(=O)(=O)c3ccc(F)cc3)C2)CC1 (stereo not drawn) [Example 394],"5-HT (inhibition of reuptake of serotonin, % inhibition)",[1],93%
same,B1R Ant. h [10 μM] % Inhibition,[2],2%
CN(C)C(c1ccc(Cl)cc1)C1CCC(CCNC(=O)COC2CCCN(S(=O)(=O)c3ccccc3)C2)CC1 (stereo not drawn) [Example 395],"5-HT (inhibition of reuptake of serotonin, % inhibition)",[1],96%
same,B1R Ant. h [10 μM] % Inhibition,[2],27%
CCN(CCOCC(=O)NC1CCC(C(c2ccc(F)cc2)N(C)C)CC1)S(=O)(=O)c1c(C)cc(OC)c(C)c1C (stereo not drawn) [Example 396],"5-HT (inhibition of reuptake of serotonin, % inhibition)",[1],90%
same,B1R Ant. h [10 μM] % Inhibition,[2],70%
COc1cc(C)c(S(=O)(=O)N2CCC(CCOCC(=O)NCCC3CCC(C(c4cccc(F)c4)N(C)C)CC3)CC2)c(C)c1C (stereo not drawn) [Example 397],"5-HT (inhibition of reuptake of serotonin, % inhibition)",[1],93%
same,B1R Ant. h [10 μM] % Inhibition,[2],2%
COc1ccc(S(=O)(=O)N2CCCCC2CCOCC(=O)NCCC2CCC(C(c3ccc(F)cc3)N(C)C)CC2)cc1 (stereo not drawn) [Example 398],"5-HT (inhibition of reuptake of serotonin, % inhibition)",[1],97%
same,B1R Ant. h [10 μM] % Inhibition,[2],80%
CN(C)C(c1ccc(F)cc1)C1CCC(CNC(=O)COCCN(C)S(=O)(=O)c2ccc(Cl)cc2)CC1 (stereo not drawn) [Example 399],"5-HT (inhibition of reuptake of serotonin, % inhibition)",[1],89%
same,B1R Ant. h [10 μM] % Inhibition,[2],20%
CN(C)C(c1ccc(F)cc1)C1CCC(CNC(=O)COCCN(C)S(=O)(=O)c2ccc(F)cc2)CC1 (stereo not drawn) [Example 400],"5-HT (inhibition of reuptake of serotonin, % inhibition)",[1],103%
same,B1R Ant. h [10 μM] % Inhibition,[2],3%
COc1ccc(S(=O)(=O)N(C)CCOCC(=O)NC2CCC(C(c3cccc(F)c3)N(C)C)CC2)cc1OC (stereo not drawn) [Example 401],"5-HT (inhibition of reuptake of serotonin, % inhibition)",[1],99%
same,B1R Ant. h [10 μM] % Inhibition,[2],−19%
CN(C)C(c1ccc(F)cc1)C1CCC(CNC(=O)COC2CCN(S(=O)(=O)c3cccc(C(F)(F)F)c3)C2)CC1 (stereo not drawn) [Example 402],"5-HT (inhibition of reuptake of serotonin, % inhibition)",[1],77%
same,B1R Ant. h [10 μM] % Inhibition,[2],0%
COc1cc(C)c(S(=O)(=O)N2CCC(OCC(=O)NCC3CCC(C(c4ccc(Cl)cc4)N(C)C)CC3)C2)c(C)c1 (stereo not drawn) [Example 403],"5-HT (inhibition of reuptake of serotonin, % inhibition)",[1],93%
same,B1R Ant. h [10 μM] % Inhibition,[2],106%
CN(C)C(c1ccc(F)cc1)C1CCC(CNC(=O)COCCN(C)S(=O)(=O)c2c(Cl)cc(Cl)cc2Cl)CC1 (stereo not drawn) [Example 404],"5-HT (inhibition of reuptake of serotonin, % inhibition)",[1],96%
same,B1R Ant. h [10 μM] % Inhibition,[2],104%
COc1ccc(S(=O)(=O)N2CCCCC2COCC(=O)NCC2CCC(C(c3ccc(F)cc3)N(C)C)CC2)c(OC)c1 (stereo not drawn) [Example 405],"5-HT (inhibition of reuptake of serotonin, % inhibition)",[1],89%
same,B1R Ant. h [10 μM] % Inhibition,[2],5%
CN(C)C(c1ccc(F)cc1)C1CCC(NC(=O)COCCN(C)S(=O)(=O)c2ccc(Cl)cc2)CC1 (stereo not drawn) [Example 406],"5-HT (inhibition of reuptake of serotonin, % inhibition)",[1],93%
same,B1R Ant. h [10 μM] % Inhibition,[2],5%
CN(C)C(c1cccc(F)c1)C1CCC(CCNC(=O)COC2CCN(S(=O)(=O)c3ccc(F)cc3)C2)CC1 (stereo not drawn) [Example 407],"5-HT (inhibition of reuptake of serotonin, % inhibition)",[1],95%
same,B1R Ant. h [10 μM] % Inhibition,[2],4%

# Source: patent publication US8106055B2, “Substituted amide compounds” (Gruenenthal GmbH, priority 2007, dated 2012)
